Measurements reported in paper PMC6502086 (Molecular Biology and Evolution, 2019).

Target: T1, Or22a (Or22a^1; ab3A-1 neurons) (Drosophila melanogaster, UniProt P81909)
T1 sequence (P81909 1-397): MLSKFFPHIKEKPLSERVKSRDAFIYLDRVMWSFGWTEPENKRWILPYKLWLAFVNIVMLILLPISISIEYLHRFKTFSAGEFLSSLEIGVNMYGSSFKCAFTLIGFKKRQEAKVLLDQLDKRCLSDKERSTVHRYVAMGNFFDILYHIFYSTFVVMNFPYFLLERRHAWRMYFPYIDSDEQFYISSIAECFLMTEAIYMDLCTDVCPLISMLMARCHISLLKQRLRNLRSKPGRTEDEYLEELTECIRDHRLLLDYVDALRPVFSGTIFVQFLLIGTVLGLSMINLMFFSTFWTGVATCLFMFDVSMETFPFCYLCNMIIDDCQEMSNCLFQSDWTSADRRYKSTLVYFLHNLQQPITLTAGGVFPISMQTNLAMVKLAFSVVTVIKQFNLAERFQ
T1 sequence (Q9VNB5 1-486 partner): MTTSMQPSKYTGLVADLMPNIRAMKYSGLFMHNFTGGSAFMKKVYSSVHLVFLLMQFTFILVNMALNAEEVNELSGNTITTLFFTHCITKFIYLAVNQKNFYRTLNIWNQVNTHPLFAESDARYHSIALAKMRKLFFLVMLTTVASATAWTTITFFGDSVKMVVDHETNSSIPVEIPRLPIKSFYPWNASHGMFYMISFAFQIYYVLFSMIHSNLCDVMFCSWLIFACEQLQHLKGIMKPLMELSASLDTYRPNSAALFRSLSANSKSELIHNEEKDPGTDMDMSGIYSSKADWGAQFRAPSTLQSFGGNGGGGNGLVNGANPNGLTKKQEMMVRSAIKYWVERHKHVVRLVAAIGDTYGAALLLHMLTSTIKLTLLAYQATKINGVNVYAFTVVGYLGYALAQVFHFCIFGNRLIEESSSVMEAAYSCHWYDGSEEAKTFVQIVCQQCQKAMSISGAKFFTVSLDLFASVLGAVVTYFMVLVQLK
Assay: single-sensillum recording, transgene in empty ab3A neuron

| Compound | spikes/s (odorant at 10^−2 v/v in paraffin oil) | spikes/s (odorant at 10^−4 v/v in paraffin oil) |
| --- | --- | --- |
| CCOC(=O)C(C)CC (centres unmarked) [ethyl 2-methyl butanoate] | flies expressing Or22ab have decreased responses to ethyl hexanoate, methyl hexanoate, and ethyl 2-methyl butanoate | – |
| CCCCCC(=O)OC [methyl hexanoate] | – | flies expressing Or22ab have decreased responses to ethyl hexanoate, methyl hexanoate, and ethyl 2-methyl butanoate |
